The source made the active and inactive calls. Rule as the data show it, for most assays here: actives have a measured EC50 and inactives only a lower limit.
Legend:
[1] = target: FAD-linked sulfhydryl oxidase ALR (Homo sapiens, UniProt P55789); experiment: inhibitors of human ALR sulfhydryl oxidase, dose response, biochemical, H2O2 detection, luminescence, cherry-pick (AID 493248)
[2] = target: Paired box protein Pax-8 (Homo sapiens, UniProt Q06710); experiment: inhibitors of PAX8-driven TPO luciferase reporter, dose response, RMG-I cells, cherry-pick (AID 687027); format: functional, cell-based;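 also: luciferase reporter driven by Pax8 target thyroperoxidase promoter measured by SteadyGlo luminescence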
Chain of Paired box protein Pax-8 (Q06710 whole entry): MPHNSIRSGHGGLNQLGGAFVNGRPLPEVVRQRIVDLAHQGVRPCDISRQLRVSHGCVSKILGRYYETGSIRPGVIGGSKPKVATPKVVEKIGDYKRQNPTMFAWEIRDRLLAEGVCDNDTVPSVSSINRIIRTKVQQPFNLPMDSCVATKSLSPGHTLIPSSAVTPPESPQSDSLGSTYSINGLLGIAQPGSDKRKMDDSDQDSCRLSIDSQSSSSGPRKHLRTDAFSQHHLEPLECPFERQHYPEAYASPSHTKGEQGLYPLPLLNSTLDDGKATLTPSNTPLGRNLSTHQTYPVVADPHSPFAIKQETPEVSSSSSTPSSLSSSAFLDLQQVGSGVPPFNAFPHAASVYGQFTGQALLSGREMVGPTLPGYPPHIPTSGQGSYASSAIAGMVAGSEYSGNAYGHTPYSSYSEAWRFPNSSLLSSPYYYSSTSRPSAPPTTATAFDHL

[3] = target: T1, Leucine aminopeptidase (Plasmodium falciparum 3D7, UniProt Q8IL11); experiment: P. falciparum M17LAP inhibitors, primary screen, biochemical, fluorogenic H-Leu-NHMec substrate, 1536-well (AID 1619); format: functional
T1 sequence (Q8IL11 whole entry): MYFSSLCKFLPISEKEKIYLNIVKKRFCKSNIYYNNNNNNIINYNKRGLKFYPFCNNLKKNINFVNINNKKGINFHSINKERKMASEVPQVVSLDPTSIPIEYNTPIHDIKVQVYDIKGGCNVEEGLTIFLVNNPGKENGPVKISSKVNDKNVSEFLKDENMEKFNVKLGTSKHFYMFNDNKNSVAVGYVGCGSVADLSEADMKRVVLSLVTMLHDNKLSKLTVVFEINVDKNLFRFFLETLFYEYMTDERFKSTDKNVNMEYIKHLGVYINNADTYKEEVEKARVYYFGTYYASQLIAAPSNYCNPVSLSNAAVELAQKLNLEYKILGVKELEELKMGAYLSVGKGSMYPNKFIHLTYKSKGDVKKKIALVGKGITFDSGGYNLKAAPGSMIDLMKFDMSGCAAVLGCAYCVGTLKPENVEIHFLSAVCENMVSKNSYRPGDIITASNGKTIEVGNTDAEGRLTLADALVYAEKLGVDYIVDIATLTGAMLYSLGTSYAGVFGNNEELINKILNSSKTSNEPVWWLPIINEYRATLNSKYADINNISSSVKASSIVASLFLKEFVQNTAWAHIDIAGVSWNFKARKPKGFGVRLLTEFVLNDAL

[4] = tested on: BJ; experiment: cytotoxicity toward BJ-TERT fibroblasts, dose response, cell-based, RAS-independent, luminescence (AID 1933); format: functional; settings: Homo sapiens
[5] = cells; format: functional, cell-based
[6] = tested on: BJ; experiment: cells; format: functional, cell-based; settings: Homo sapiens
[7] = cells; format: functional, cell-based; remark: listed apart in the source
[8] = tested on: BJ; experiment: cytotoxicity toward BJ-TERT-LT-ST fibroblasts, dose response, cell-based, RAS-independent, luminescence (AID 1935); format: functional; settings: Homo sapiens;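 also: BJ fibroblasts immortalized with TERT plus LT and ST oncogenes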
[9] = cytotoxicity toward DRD oncogenic fibroblasts, dose response, cell-based, non-viral oncogenic, luminescence (AID 1934); format: functional; settings: Homo sapiens
[10] = tested on: INS1; experiment: beta cell apoptosis inhibitors, cytokine rescue, dose response, luminescence, retest (AID 449756); format: functional, cell-based; settings: Rattus norvegicus;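 also: cell death triggered by IL-1 beta plus TNF-alpha plus IFN-gamma mixture; protective hits raise ATP signal compared with cytokine alone wells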
[11] = cells; format: functional
[12] = NIH-3T3 fibroblast cytotoxicity, dose response, cytotoxicity control, cell-based, fluorescence, Alamar Blue, secondary assay (AID 2327); format: functional;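 also: NIH-3T3 mouse fibroblasts cultured with fluconazole at 8 µg/mL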
[13] = inhibitors of firefly luciferase expression or activity, dose response, H4 neuroglioma cells, luminescence (AID 1990); format: functional, cell-based
[14] = Luminescence Cell-Based Dose Response HTS to Identify Inhibitors of 5'UTR Stem-Loop Driven Prion Protein mRNA Translation in H4 Neuroglioblastoma Cells. [Related pubchem assays: 1827 (Project Summary), 1813 (Primary HTS)]; format: functional
[15] = inhibitors of SNCA 5'UTR-driven reporter translation, confirmation, H4 neuroglioma cells, luminescence (AID 1988); format: functional, cell-based
[16] = C. albicans growth with fluconazole, confirmation, fluorescence, retest (AID 2467); format: functional, cell-based
[17] = target: Induced myeloid leukemia cell differentiation protein Mcl-1 (Homo sapiens, UniProt Q07820); format: functional
Chain of Induced myeloid leukemia cell differentiation protein Mcl-1 (Q07820 whole entry): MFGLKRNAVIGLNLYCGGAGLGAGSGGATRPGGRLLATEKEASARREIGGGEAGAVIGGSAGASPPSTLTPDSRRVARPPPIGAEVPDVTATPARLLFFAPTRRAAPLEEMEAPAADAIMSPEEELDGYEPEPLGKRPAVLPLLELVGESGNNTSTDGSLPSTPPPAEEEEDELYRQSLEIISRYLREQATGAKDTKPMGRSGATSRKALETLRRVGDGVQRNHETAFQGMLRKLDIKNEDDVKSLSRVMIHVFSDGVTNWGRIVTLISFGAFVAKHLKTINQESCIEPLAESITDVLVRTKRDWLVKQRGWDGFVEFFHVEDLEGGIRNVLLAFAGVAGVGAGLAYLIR

Chain of FAD-linked sulfhydryl oxidase ALR (P55789 whole entry): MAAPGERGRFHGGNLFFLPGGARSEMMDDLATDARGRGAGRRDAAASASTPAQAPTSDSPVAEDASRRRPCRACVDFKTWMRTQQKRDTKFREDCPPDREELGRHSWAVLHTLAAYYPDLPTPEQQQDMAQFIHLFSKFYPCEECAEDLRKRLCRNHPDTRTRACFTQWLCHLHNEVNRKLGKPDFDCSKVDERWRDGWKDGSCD

In the case of `Cc1ccc(C(=O)Nc2nc(-c3ccc([N+](=O)[O-])cc3)cs2)o1`, the AC50 [1] is reported as 0.675 µM (active).
For `Cn1c(CCN2CCN(c3ccccn3)CC2)nc2cc(NS(=O)(=O)c3ccc(Cl)cc3)ccc21`, the AC50 [2] was 8.15 µM (active).
With `CC1=NNC(=O)C1CC(=O)N/N=C(\C)c1cccs1` (stereo not drawn) the IC50 [3] was 3.56 µM (active).
With `O=C(NCC(c1cccnc1)N1CCN(c2ccccc2)CC1)OCc1ccccc1` (stereo not drawn) the AC50 [1] was 6.15 µM (active).
For `COc1ccc(OC)c(C(=O)N2CCCC(Nc3ccc(F)cc3)C2)c1` (stereo not drawn), the AC50 [1] was 1.92 µM (active).
In the case of `Cn1nccc1C(=O)N/N=C/c1c(O)ccc2ccccc12`, the EC50 [4] is reported as 1.61 µM (active), the EC50 [5] is reported as 5.93 µM (active) and the EC50 [6] is reported as 7.69 µM (active). The EC50 [7] was 38.7 µM (active), the EC50 [8] was 4.66 µM (active) and the EC50 [9] was 1.59 µM (active). The AC50 [10] was 0.856 µM (active).
In the case of `CCOC(=O)CSc1nc2c(sc(=S)n2-c2ccccc2)c(=O)[nH]1`, the IC50 [3] is reported as 35.6 µM (active).
For `COC(=O)COc1ccc2cc(-c3ccc(OC)cc3)c(=O)oc2c1`, the IC50 [11] was 1.12 µM (active).
With `CCCOc1ccc(NC(=O)C2CC(=O)N(C(C)C)C2)cc1` (stereo not drawn) the IC50 [3] was 99.7 µM (active).
For `CC1CCN(C(=O)COC(=O)c2cc3ccccc3cc2O)CC1`, the IC50 [11] was 0.9 µM (active).
For `[O-]c1ccccc1-[n+]1c(-c2ccccc2)cc(-c2ccccc2)cc1-c1ccccc1`, the EC50 [12] was > 160 µM (inconclusive), the EC50 [13] was > 120 µM (not active) and the EC50 [4] was 11.7 µM (active). For the same molecule, the EC50 [14] was > 120 µM (not active), the EC50 [15] was > 120 µM (not active) and the EC50 [6] was 14.2 µM (active). The EC50 [16] was 0.85 µM (active), the EC50 [8] was > 150 µM (inconclusive) and the EC50 [9] was 11.4 µM (active). For the same molecule, the AC50 [10] was 6.35 µM (active).
With `O=C(O)c1ccc(N2C(=O)/C(=C/c3nc4ccccc4[nH]3)SC2=S)cc1` the AC50 [1] was 0.009 µM (active).
In the case of `Cn1c(=O)c(C(=O)COC(=O)c2cc(-c3ccco3)nc3ccccc23)c(N)n(CC2CC2)c1=O`, the IC50 [17] is reported as 1.99 µM (active).
